Measured values published in paper PMC11249646, “Small-Molecule Disruptors of the Interaction between Calcium- and Integrin-Binding Protein 1 and Integrin αIIbβ3 as Novel Antiplatelet Agents” (ACS Pharmacology & Translational Science, 2024).
Read-outs that look alike come from different tables or passages of the source. Each block holds one compound with its values, some of them ahead of it. Where a SMILES comes first, the peptide text is derived from it. The star is where a group is joined. FITC = O=C1OC2(c3ccc(O)cc3Oc3cc(O)ccc32)c2ccc(NC(=S)*)cc21

Tests used:
Assay type in all cases: binding
[1] = biological target: T1, CIB1 and αIIb interaction (GST-CIB1 : F-αIIb peptide) (Homo sapiens, UniProt Q99828); assay: FP assay, 384-well format (screen); set-up: 384-well SCREEN Efficacy (%): concentration or dose not given beside the values; settings: F-αIIb peptide; for 384-well SCREEN Confirm?: YES/NO; for IC50: read-out: 384-well SCREEN IC50
T1 construct: made in house; host or cells: BL-21 plus RIL cells (E. coli)
T1 sequence (Q99828 1-191): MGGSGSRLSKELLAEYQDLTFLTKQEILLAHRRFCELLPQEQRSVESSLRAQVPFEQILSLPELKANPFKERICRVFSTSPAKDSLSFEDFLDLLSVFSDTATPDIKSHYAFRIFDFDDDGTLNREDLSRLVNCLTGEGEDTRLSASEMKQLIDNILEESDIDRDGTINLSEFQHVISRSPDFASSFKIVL

[2] = biological target: T2, GST-CIB1 : F-scrambled peptide (Homo sapiens, UniProt Q99828); assay: FP scrambled-peptide counter screen, 384-well format; settings: for IC50: read-out: 384-well COUNTERSCREEN IC50
T2 construct: made in house; host or cells: BL-21 plus RIL cells (E. coli)
T2 sequence (Q99828 1-191): T1 sequence (Q99828 1-191)

[3] = biological target: T3, CIB1 and αIIb interaction (CIB1-GST : F-αIIb peptide) (Homo sapiens, UniProt Q99828); assay: FP assay, 1536-well qHTS format (primary and confirmatory screen)
T3 construct: made in house; host or cells: BL-21 plus RIL cells (E. coli)
T3 sequence (Q99828 1-191): T1 sequence (Q99828 1-191)

[4] = biological target: T2, GST-CIB1 : F-scrambled peptide; assay: FP scrambled-peptide counter screen, 1536-well format; settings: for IC50: read-out: IC50 [μM] (counterscreen)
[5] = qHTS primary screen hits, Table S2, negative = inhibition
[6] = qHTS primary screen hits, Table S2, negative sign = inhibitory curve
[7] = qHTS primary screen hits, Table S2, read-out: IC50
[8] = counterscreen, qHTS curve class, negative sign = inhibitory curve
[9] = confirmatory screen, qHTS curve class, negative sign = inhibitory curve
[10] = confirmatory screen, read-out: IC50 [μM] (confirmatory screen)
[11] = qHTS FP screen hits, Table S2, negative = inhibition
[12] = qHTS FP screen hits, Table S2, one class per curve where COUNT > 1, negative sign = inhibitory curve
[13] = qHTS FP screen hits, Table S2, read-out: IC50
[14] = Table S3, counterscreen, qHTS curve class, a negative sign marks inhibitory curves
[15] = Table S3, counterscreen, negative = inhibition
[16] = Table S3, confirmatory screen, YES/NO call
[17] = Table S3, confirmatory screen, qHTS curve class, a negative sign marks inhibitory curves
[18] = Table S3, confirmatory screen, negative = inhibition
[19] = Table S3, confirmatory screen, read-out: IC50 [μM] (confirmatory screen)
[20] = qHTS primary screen hits, Table S2, negative sign = inhibitory curve, several classes where COUNT > 1

384-well SCREEN Efficacy (%) [1]: 70% | 384-well SCREEN Confirm? [1]: YES | 384-well COUNTERSCREEN Efficacy (%) ([2]; F-scrambled peptide): 70% | Efficacy (%) [3, 5]: -64% | Curve Class [3, 6]: -1.2
Compound: Cc1nc(N=Nc2cc(S(=O)(=O)O)c3cc([N+](=O)[O-])cc(S(=O)(=O)O)c3c2)c(COP(=O)(O)O)c(C=O)c1O (stereo in doubt) [NCGC00162294-03]

384-well SCREEN Efficacy (%) [1]: 175% | 384-well SCREEN Confirm? [1]: YES | IC50 [1]: 22.2 µM | 384-well COUNTERSCREEN Efficacy (%) ([2]; F-scrambled peptide): 200% | IC50 ([2]; F-scrambled peptide): 22.2 µM | Efficacy (%) [3, 5]: -172% | Curve Class [3, 6]: -1.1 | IC50 [3, 7]: 12.7 µM
Compound: OCCN(CCO)c1nc(N2CCCCC2)c2nc(N(CCO)CCO)nc(N3CCCCC3)c2n1 [NCGC00015385-15]

384-well SCREEN Efficacy (%) [1]: 70% | 384-well SCREEN Confirm? [1]: YES | IC50 [1]: 9.1 µM | 384-well COUNTERSCREEN Efficacy (%) ([2]; F-scrambled peptide): 70% | IC50 ([2]; F-scrambled peptide): 7.4 µM | Efficacy (%) [3, 5]: -46% | Curve Class [3, 6]: -1.2 | IC50 [3, 7]: 5 µM
Compound: NS(=O)(=O)c1cccc2c1c([N+](=O)[O-])cc1nc(O)c([O-])nc12.[Na+] [NCGC00024961-03]

IC50 [1]: > 120 µM | IC50 ([2]; F-scrambled peptide): 4.6 µM | IC50 ([3]; confirmatory screen, read-out: CONFIRMATORY SCREEN IC50): 50.1 µM | IC50 [3, 7]: 24.1 µM
Compound: CN1CCCN=C1/C=C/c1cccs1 [NCGC00094552-04]

IC50 [1]: 1.7 µM | IC50 ([2]; F-scrambled peptide): 3.3 µM | IC50 [3, 7]: 7.9 µM
Compound: Cc1nc(/N=N\c2cc(S(=O)(=O)O)c3cc([N+](=O)[O-])cc(S(=O)(=O)O)c3c2)c(COP(=O)(O)O)c(C=O)c1O [NCGC00162294-03]

384-well SCREEN Efficacy (%) [1]: 48% | 384-well SCREEN Confirm? [1]: YES | IC50 [1]: 15.8 µM | 384-well COUNTERSCREEN Efficacy (%) ([2]; F-scrambled peptide): 34% | IC50 ([2]; F-scrambled peptide): 14.1 µM
Compound: CN(C)[C@@H]1CCN(c2cccc(Nc3nn4c(=O)c5ccccc5nc4s3)c2)C1.Cl [NCGC00189223-01]

Efficacy (%) (counterscreen) ([4]; counterscreen): -16% | Confirm? (counterscreen) ([4]; counterscreen, YES/NO): YES | Curve Class (counterscreen) [4, 8]: 4 | Efficacy (%) (confirmatory screen) ([3]; confirmatory screen): -39% | Confirm? (confirmatory screen) ([3]; confirmatory screen, YES/NO): YES | Curve Class (confirmatory screen) [3, 9]: -2.4 | IC50 [3, 10]: 89.1 µM | Efficacy (%) [3, 11]: -54% | Curve Class [3, 12]: -2.2 | IC50 [3, 13]: 79.4 µM
Compound: Nc1nc2c(s1)C(c1ccc(F)cc1F)CC(=O)N2 (stereo not shown) [NCGC00422010-03]

Efficacy (%) (counterscreen) ([4]; counterscreen): -22% | Confirm? (counterscreen) ([4]; counterscreen, YES/NO): YES | Curve Class (counterscreen) [4, 8]: 4 | Efficacy (%) (confirmatory screen) ([3]; confirmatory screen): -30% | Confirm? (confirmatory screen) ([3]; confirmatory screen, YES/NO): YES | Curve Class (confirmatory screen) [3, 9]: -2.4 | IC50 [3, 10]: 35.5 µM | Efficacy (%) [3, 11]: -25% | IC50 [3, 13]: 25.1 µM
Compound: CC(C)C(=O)OCc1ccc(-c2nn(Cc3ccccc3)c3ccccc23)o1 [NCGC00479272-01]

Efficacy (%) (counterscreen) ([4]; counterscreen): -15% | Confirm? (counterscreen) ([4]; counterscreen, YES/NO): YES | Curve Class (counterscreen) [4, 8]: 4 | Efficacy (%) (confirmatory screen) ([3]; confirmatory screen): -39% | Confirm? (confirmatory screen) ([3]; confirmatory screen, YES/NO): YES | Curve Class (confirmatory screen) [3, 9]: -2.4 | IC50 [3, 10]: 44.7 µM | Efficacy (%) [3, 11]: -33% | Curve Class [3, 12]: -1.2 | IC50 [3, 13]: 28.2 µM
Compound: O=C(O)c1cnn(-c2nc3cc(Cl)c(OC(F)(F)F)cc3[nH]2)c1 [NCGC00484069-01]

The remaining lines, values behind:

Compound: CSCC[C@H](NC(=O)[C@@H](NC(=O)[C@H](CCCCN)NC(=O)[C@@H](NC(=O)[C@H](Cc1ccccc1)NC(=O)[C@H](CC(C)C)NC(=O)[C@H](CCCCN)NC(=O)[C@H](CCCNC(=N)N)NC(C)=O)C(C)C)C(C)C)C(=O)N[C@@H](Cc1ccccc1)C(=O)N[C@@H](Cc1c[nH]c2ccccc12)C(=O)N[C@@H](CCCNC(=N)N)C(=O)N[C@@H](CC(C)C)C(=O)N[C@@H](CC(N)=O)C(=O)NCC(=O)N[C@@H](C)C(=O)N[C@@H](CCCCNC(=S)Nc1ccc2c(c1)C(=O)OC21c2ccc(O)cc2Oc2cc(O)ccc21)C(=O)O [F-scrambled, reference compound] (Ac-RKLFVKVMFWRLNGAK(FITC)-OH; C-terminus assumed)
affinity weaker compared to the native peptide ([2]; F-scrambled vs F-αIIb, 1.6 vs 0.2 μM): ~8 fold

Compound: O=C(O)C1=CC(=C(c2ccc(O)c(C(=O)O)c2)c2ccc(O)c(C(=O)O)c2)C=CC1=O [NCGC00015040-05]
384-well SCREEN Efficacy (%) [1]: 45% | 384-well SCREEN Confirm? [1]: YES | IC50 [1]: 4.6 µM | 384-well COUNTERSCREEN Efficacy (%) ([2]; F-scrambled peptide): 15% | 384-well COUNTERSCREEN Confirm? ([2]; F-scrambled peptide, *: Curve in opposite direction): YES | IC50 ([2]; F-scrambled peptide): > 120 µM | Efficacy (%) [3, 5]: -33% | Curve Class [3, 6]: -1.2 | IC50 [3, 7]: 3.2 µM

Compound: Cc1ccc2c(c1)/C(=C\C(=O)c1cccs1)C(=O)N2.O=C(O)C(F)(F)F [NCGC00479180-01]
Curve Class (counterscreen) [4, 14]: -2.4 | Efficacy (%) (counterscreen) [4, 15]: -64% | IC50 ([4]; Table S3, counterscreen): 11.2 µM | Confirm? (confirmatory screen) [3, 16]: YES | Curve Class (confirmatory screen) [3, 17]: -1.2 | Efficacy (%) (confirmatory screen) [3, 18]: -57% | IC50 [3, 19]: 11.2 µM | Efficacy (%) [3, 5]: -36% | Curve Class [3, 20]: -1.4 | IC50 [3, 7]: 15.8 µM

Compound: COc1cc2ccccc2cc1C(=O)N/C(S)=N/c1cc(C(=O)O)ccc1C.O=C(O)C(F)(F)F [NCGC00479324-01]
COUNTERSCREEN Efficacy (%) ([4]; counterscreen): 12% | COUNTERSCREEN Curve Class ([4]; counterscreen, qHTS curve class): 4 | CONFIRMATORY SCREEN Efficacy (%) ([3]; confirmatory screen): -38% | CONFIRMATORY SCREEN Curve Class ([3]; confirmatory screen, qHTS curve class): 4 | Efficacy (%) [3, 11]: -25% | IC50 [3, 13]: 12.6 µM

Compound: COc1ccccc1C(=O)/C=C1/C(=O)Nc2ccc(C)cc21.O=C(O)C(F)(F)F [NCGC00481357-01]
Efficacy (%) (counterscreen) ([4]; counterscreen): -51% | Curve Class (counterscreen) [4, 8]: -1.4 | IC50 ([4]; counterscreen): 6.3 µM | Efficacy (%) (confirmatory screen) ([3]; confirmatory screen): -59% | Confirm? (confirmatory screen) ([3]; confirmatory screen, YES/NO): YES | Curve Class (confirmatory screen) [3, 9]: -1.4 | IC50 [3, 10]: 5.6 µM | Efficacy (%) [3, 5]: -43% | Curve Class [3, 20]: -1.2 | IC50 [3, 7]: 14.1 µM

Compound: Nc1nc2c(s1)C(c1ccccc1C(F)(F)F)CC(=O)N2.O=C(O)C(F)(F)F (stereo not shown) [NCGC00488247-02]
Confirm? (counterscreen) ([4]; Table S3, counterscreen, YES/NO call): YES | Curve Class (counterscreen) [4, 14]: -2.4 | Efficacy (%) (counterscreen) [4, 15]: -39% | IC50 ([4]; Table S3, counterscreen): 28.2 µM | Curve Class (confirmatory screen) [3, 17]: 4 | Efficacy (%) (confirmatory screen) [3, 18]: -12% | Efficacy (%) [3, 11]: -83% | Curve Class [3, 12]: -2.2 | IC50 [3, 13]: 44.7 µM

Compound: O=C(O)C(F)(F)F.O=C1CC(c2ccccc2Cl)c2sc(N3CCOCC3)nc2N1 (stereo not shown) [NCGC00488256-02]
Curve Class (counterscreen) [4, 14]: -2.2 | Efficacy (%) (counterscreen) [4, 15]: -77% | IC50 ([4]; Table S3, counterscreen): 31.6 µM | Confirm? (confirmatory screen) [3, 16]: YES | Curve Class (confirmatory screen) [3, 17]: -2.4 | Efficacy (%) (confirmatory screen) [3, 18]: -49% | IC50 [3, 19]: 50.1 µM | Efficacy (%) [3, 5]: -72% | Curve Class [3, 20]: -2.2 | IC50 [3, 7]: 79.4 µM

Compound: CNc1nc2c(s1)C(c1c(F)cccc1Cl)CC(=O)N2.O=C(O)C(F)(F)F (stereo not shown) [NCGC00488265-02]
Curve Class (counterscreen) [4, 14]: 4 | Efficacy (%) (counterscreen) [4, 15]: 0% | Curve Class (confirmatory screen) [3, 17]: 4 | Efficacy (%) (confirmatory screen) [3, 18]: -12% | Efficacy (%) [3, 5]: -65% | Curve Class [3, 20]: -2.2 | IC50 [3, 7]: 56.2 µM
